Legend:
[1] = test system: MNoV^CR6; experiment: CRISPR screen in BV2-Cas9 cells, sgRNA enrichment after MNoV^CR6 infection; format: cell-based, murine norovirus; settings: for log2 fold enrichment after MNV infection relative to mock infected cells, CR6 MOI 0.05: MNoV^CR6, MOI 0.05, ten days post-infection; for log2 fold enrichment after MNV infection relative to mock infected cells, CR6 MOI 5: MNoV^CR6, MOI 5, ten days post-infection
Experimental: (§1) BV2 cells were transduced with pXPR_101 (Addgene plasmid 52962) and selected with blasticidin for eleven days. Cas9 activity was assessed by transducing parental BV2 or BV2-Cas9 cells with pXPR_011 (Addgene plasmid 59702), expresses eGFP and a sgRNA targeting eGFP at an MOI<1 [1]. Cells were transduced for 2 days and subsequently, selected for five days with puromycin and the frequency of eGFP expression was assessed by flow cytometry. The mouse ASIAGO sgRNA CRISPR library contains six independent genome wide pools which each pool containing a unique sgRNA targeting each of 20,077 mouse genes. Four ASIAGO pools were independently used to generate the BV2 library (Doench et al submitted). Each ASIAGO pool was delivered by lentiviral transduction of 5×10^7 BV2 cells at an MOI ˜0.2. This equates to 1×10^7 transduced cells, which is sufficient for the integration of each sgRNA 500 independent times. Two days post transduction, puromycin was added to the media and transduced cells were selected for five days. For each experimental condition, 1×10^7 BV2-Cas9 cells containing sgRNAs were seeded in a T175 tissue culture flask. Cells were infected with either MNoV^CW3 or MNoV^CR6 at MOls of 0.05 and 5. Mock infected cells were harvested 48 hrs after seeding and served as a reference for sgRNA enrichment analysis. Ten days post-infection genomic DNA was isolated from surviving cells using a Qiamp DNA mini kit according to manufacturer instructions (Qiagen).
(§2) Illumina sequencing and STARS analysis was performed as described previously (Doench et al, in press). Briefly, genomic DNA was aliquoted into multiple wells of a 96-well plate with up to 10 μg of DNA in 50 μl total volume. A PCR mastermix consisting of ExTaq DNA polymerase (Clontech), ExTaq buffer, dNTP, P5 stagger primer, and water was generated. 40 μl of PCR master mix, and 10 μl of a barcoded primer was added to each well containing 50 μl of DNA. Samples were PCR amplified as follows: 95° C. for 1 min., followed by 28 cycles of 94° C. for 30 sec., 52.5° C. for 30 sec., 72° C. for 30 sec. with a final 10 min. at 72° C. PCR product was purified with Agencourt AMPure XP SPRI beads according to the manufacture's protocol (Beckman Coluter). Samples were sequenced on an Illumina HiSeq 2000. Barcodes in the P7 primer were deconvuluted and the sgRNA sequence was mapped to a reference file of sgRNAs in the ASIAGO library. To normalize for different numbers of reads per condition, read counts per sgRNA were normalized to 10^7 total reads per sample. This normalized value was then log-2 transformed. sgRNAs that were not sequenced were arbitrarily assigned a read count of 1. sgRNA frequencies were then analyzed using STARS software, which is available at broadinstitute.org/rnai/public/software/index (Doench et al, in press). STARS computes a score for each gene of rank-ordered sgRNA hits that was above […] of total sequenced sgRNAs. A STAR score was only assigned to genes that scored above this threshold in at least two of four independent genome wide pools.

[2] = test system: MNoV^CW3; experiment: CRISPR screen in BV2-Cas9 cells, sgRNA enrichment after MNoV^CW3 infection; format: cell-based, murine norovirus; settings: for log2 fold enrichment after MNV infection relative to mock infected cells, CW3 MOI 0.05: MNoV^CW3, MOI 0.05, ten days post-infection; for log2 fold enrichment after MNV infection relative to mock infected cells, CW3 MOI 5: MNoV^CW3, MOI 5, ten days post-infection
Experimental: as §1, §2

Substance	log2 fold enrichment after MNV infection relative to mock infected cells, CR6 MOI 0.05 [1]	log2 fold enrichment after MNV infection relative to mock infected cells, CR6 MOI 5 [1]	log2 fold enrichment after MNV infection relative to mock infected cells, CW3 MOI 0.05 [2]	log2 fold enrichment after MNV infection relative to mock infected cells, CW3 MOI 5 [2]
ACAGGTCCAGAGGAGGTGAG: sgRNA used in screen, matches CD300ld, CD300lf, CD300lh (listed as DNA, chemistry not given here)	0.0 log2 fold enrichment	13.1 log2 fold enrichment	0.0 log2 fold enrichment	13.0 log2 fold enrichment
ACGGAAGTGAGAAAGAAAAG: sgRNA used in screen, matches CD300le (listed as DNA, chemistry not given here)	−6.6 log2 fold enrichment	−6.6 log2 fold enrichment	−6.6 log2 fold enrichment	−6.6 log2 fold enrichment
CATAGGTCACTGTAAAGGTG: sgRNA used in screen, matches CD300la (listed as DNA, chemistry not given here)	−7.2 log2 fold enrichment	−7.2 log2 fold enrichment	−7.2 log2 fold enrichment	−7.2 log2 fold enrichment
CCTGTGATCCAGAAGAGAAA: sgRNA used in screen, matches CD300lf (listed as DNA, chemistry not given here)	9.6 log2 fold enrichment	9.6 log2 fold enrichment	9.6 log2 fold enrichment	9.6 log2 fold enrichment
CGTAGCCAGACACAGAGCCA: sgRNA used in screen, matches CD300le (listed as DNA, chemistry not given here)	−5.8 log2 fold enrichment	−5.9 log2 fold enrichment	−5.9 log2 fold enrichment	−5.5 log2 fold enrichment
CTACGCAAATCAGGACCAGG: sgRNA used in screen, matches CD300lg (listed as DNA, chemistry not given here)	−6.4 log2 fold enrichment	−6.4 log2 fold enrichment	−6.4 log2 fold enrichment	−6.4 log2 fold enrichment
CTAGCTACTACTCTGATAAC: sgRNA used in screen, matches CD300lf (listed as DNA, chemistry not given here)	0.0 log2 fold enrichment	9.8 log2 fold enrichment	0.0 log2 fold enrichment	11.0 log2 fold enrichment
CTCCACGTAGGTACACCGCA: sgRNA used in screen, matches CD300lg (listed as DNA, chemistry not given here)	−5.6 log2 fold enrichment	−5.8 log2 fold enrichment	−5.8 log2 fold enrichment	−5.3 log2 fold enrichment
GAGTGTGTCATGTCGATATG: sgRNA used in screen, matches CD300la (listed as DNA, chemistry not given here)	−6.2 log2 fold enrichment	−6.2 log2 fold enrichment	−6.2 log2 fold enrichment	−6.2 log2 fold enrichment
GCAGCAAATCCAAATCTCAG: sgRNA used in screen, matches CD300lb (listed as DNA, chemistry not given here)	−5.8 log2 fold enrichment	−5.8 log2 fold enrichment	−5.8 log2 fold enrichment	−5.8 log2 fold enrichment
GCCCTTGCTACTTACCTGGG: sgRNA used in screen, matches CD300ld (listed as DNA, chemistry not given here)	0.0 log2 fold enrichment	−5.5 log2 fold enrichment	0.0 log2 fold enrichment	−5.5 log2 fold enrichment
GCTACTTACCTGGGAGGAAA: sgRNA used in screen, matches CD300lh (listed as DNA, chemistry not given here)	−5.9 log2 fold enrichment	−5.9 log2 fold enrichment	−5.9 log2 fold enrichment	−5.9 log2 fold enrichment
GGAAGAGGATGAGCAGAGCA: sgRNA used in screen, no identical CD300 match marked (listed as DNA, chemistry not given here)	−6.4 log2 fold enrichment	−6.4 log2 fold enrichment	−6.4 log2 fold enrichment	−6.4 log2 fold enrichment
GGATCCAGTCACAGGTCCAG: sgRNA used in screen, matches CD300lf, CD300lh (listed as DNA, chemistry not given here)	0.0 log2 fold enrichment	12.6 log2 fold enrichment	0.0 log2 fold enrichment	12.5 log2 fold enrichment
GGTCGTCCCTGATGGACACA: sgRNA used in screen, matches CD300lh (listed as DNA, chemistry not given here)	12.0 log2 fold enrichment	11.0 log2 fold enrichment	12.0 log2 fold enrichment	7.8 log2 fold enrichment
GTTACTGTGAACATTGGCCC: sgRNA used in screen, matches CD300lf (listed as DNA, chemistry not given here)	0.0 log2 fold enrichment	12.0 log2 fold enrichment	0.0 log2 fold enrichment	12.1 log2 fold enrichment
TACCACGCCACAGGACTCCA: sgRNA used in screen, matches CD300lg (listed as DNA, chemistry not given here)	0.0 log2 fold enrichment	−6.2 log2 fold enrichment	0.0 log2 fold enrichment	−6.2 log2 fold enrichment

Reference: patent publication US20180252712A1, “RECEPTOR FOR NOROVIRUS AND USES THEREOF” (priority 2017, published 2018)
